Source: patent publication US20230373985A1 (Origenis Gmbh, priority 2020, published 2023)

Legend:
[1] = biological target: T1, wt human TYK2, catalytic site (Homo sapiens, UniProt P29597); assay: HTRF KinEASE assay, TYK2; type: biochemical; details: 1 μM ATP; read-out: IC50, Activity Toward TYK2
T1 construct: wt human TYK2, catalytic site; purchased SignalChem
T1 sequence (P29597 897-1176 limits assumed): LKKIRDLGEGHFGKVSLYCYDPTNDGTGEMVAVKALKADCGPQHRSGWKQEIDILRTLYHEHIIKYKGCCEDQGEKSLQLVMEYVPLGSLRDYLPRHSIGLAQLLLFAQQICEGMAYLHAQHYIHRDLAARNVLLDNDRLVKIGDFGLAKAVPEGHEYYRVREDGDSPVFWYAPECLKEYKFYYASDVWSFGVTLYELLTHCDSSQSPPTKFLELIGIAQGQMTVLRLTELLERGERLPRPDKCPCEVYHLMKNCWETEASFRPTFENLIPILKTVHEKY
Procedure, shortened: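 Kinase reaction run at room temperature for at least 30 min: 2 nM TYK2 with 1 μM ATP, or 1 nM JAK2 with 100 μM ATP, each with 1 μM biotin-TK substrate. Phosphorylation detected by HTRF (60 min antibody/XL665) and evaluated from emission ratios.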

[2] = biological target: T2, wt human JAK1, catalytic site (Homo sapiens, UniProt P23458); assay: HTRF KinEASE assay, JAK1; type: biochemical; details: 2.5 μM ATP; read-out: IC50, Activity Toward JAK1
T2 construct: wt human JAK1, catalytic site; purchased ThermoFisher
Procedure, shortened: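 Compounds in DMSO dilution were mixed with kinase, biotin-TK substrate and ATP and reacted for ≥30 min at room temperature. Detection reagents (antibody, streptavidin-XL665) were read 60 min later as HTRF, with emission ratios analysed per KinEASE protocol.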

[3] = biological target: T3, G2019S human LRRK2, catalytic site (Homo sapiens, UniProt Q5S007, G2019S); assay: TR-FRET LanthaScreen Eu Kinase Binding Assay, LRRK2 G2019S; details: LRRK2(G2019); one range stated for wt and G2019; read-out: IC50, Activity Toward LRRK2(G2019)
T3 construct: G2019S human LRRK2, catalytic site; purchased ThermoFisher
Procedure, shortened: (§1)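 Each kinase was incubated with compound, 2 nM europium-labelled antibody and Tracer 236 for one hour at room temperature before plate reading. LRRK2 wt and G2019S used 5 nM protein and 10 nM tracer; NUAK1 used 8 nM protein and 5 nM tracer.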

[4] = biological target: T4, wt human LRRK2, catalytic site (Homo sapiens, UniProt Q5S007); assay: TR-FRET LanthaScreen Eu Kinase Binding Assay, LRRK2 wt; details: one range stated for wt and G2019, read-out: IC50, Activity Toward LRRK2(Wt)
T4 construct: 5 nM wt human LRRK2, catalytic site; purchased ThermoFisher
Procedure, shortened: as §1

[5] = biological target: T5, wt human NUAK1, full length (Homo sapiens, UniProt O60285); assay: TR-FRET LanthaScreen Eu Kinase Binding Assay, NUAK1; details: read-out: IC50, Activity Toward NUAK1
T5 construct: 8 nM wt human NUAK1, full length (ThermoFisher/USA); purchased ThermoFisher
T5 sequence (O60285 1-661): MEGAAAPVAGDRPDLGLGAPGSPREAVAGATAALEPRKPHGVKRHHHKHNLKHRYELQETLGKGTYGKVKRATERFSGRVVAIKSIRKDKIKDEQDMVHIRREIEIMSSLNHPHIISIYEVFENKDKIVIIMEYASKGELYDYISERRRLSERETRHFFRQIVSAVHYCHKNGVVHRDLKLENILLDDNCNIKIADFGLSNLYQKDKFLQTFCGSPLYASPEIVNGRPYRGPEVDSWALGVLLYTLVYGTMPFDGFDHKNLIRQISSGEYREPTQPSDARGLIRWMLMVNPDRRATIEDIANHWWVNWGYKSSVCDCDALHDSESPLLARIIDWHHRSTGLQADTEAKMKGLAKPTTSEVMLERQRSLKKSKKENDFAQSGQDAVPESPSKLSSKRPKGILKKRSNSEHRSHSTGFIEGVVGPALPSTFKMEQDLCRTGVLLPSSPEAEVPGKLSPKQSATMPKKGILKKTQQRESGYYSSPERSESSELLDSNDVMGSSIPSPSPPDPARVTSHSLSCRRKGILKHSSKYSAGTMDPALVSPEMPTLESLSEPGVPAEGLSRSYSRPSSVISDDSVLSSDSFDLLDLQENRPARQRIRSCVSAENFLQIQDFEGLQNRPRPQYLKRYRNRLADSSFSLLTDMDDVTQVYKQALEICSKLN
Protocol: The basic protocol for TR-FRET LanthaScreen Eu Kinase Binding Assay inhibitor studies were performed as follows. LanthaScreen Kinase Binding Assays (ThermoFisher/USA) to evaluate inhibitors were performed by addition of 5 μL of test compound in corresponding DMSO dilutions/5 μl of kinase/antibody mixture, 5 μL of tracer into 384 well small volume plates. After incubation for 1 hour at room temperature, plates were read. Data analysis of emission ratios was according LanthaScreen Eu Kinase Binding Assay protocol.
Kinase and assay components were adjusted to final concentrations according to kit protocol. For LRRK2: 5 nM wt human LRRK2, catalytic site, or G2019S human LRRK2, catalytic site (ThermoFisher/USA), 2 nM Eu-Anti-GST Antibody, 10 nM Kinase Tracer 236 in 1× Kinase Buffer A. For NUAK1: 8 nM wt human NUAK1, full length (ThermoFisher/USA), 2 nM Eu-Anti-His Antibody, 5 nM Kinase Tracer 236 in 1× Kinase Buffer A.

T4 sequence (Q5S007 970-2527 limits assumed): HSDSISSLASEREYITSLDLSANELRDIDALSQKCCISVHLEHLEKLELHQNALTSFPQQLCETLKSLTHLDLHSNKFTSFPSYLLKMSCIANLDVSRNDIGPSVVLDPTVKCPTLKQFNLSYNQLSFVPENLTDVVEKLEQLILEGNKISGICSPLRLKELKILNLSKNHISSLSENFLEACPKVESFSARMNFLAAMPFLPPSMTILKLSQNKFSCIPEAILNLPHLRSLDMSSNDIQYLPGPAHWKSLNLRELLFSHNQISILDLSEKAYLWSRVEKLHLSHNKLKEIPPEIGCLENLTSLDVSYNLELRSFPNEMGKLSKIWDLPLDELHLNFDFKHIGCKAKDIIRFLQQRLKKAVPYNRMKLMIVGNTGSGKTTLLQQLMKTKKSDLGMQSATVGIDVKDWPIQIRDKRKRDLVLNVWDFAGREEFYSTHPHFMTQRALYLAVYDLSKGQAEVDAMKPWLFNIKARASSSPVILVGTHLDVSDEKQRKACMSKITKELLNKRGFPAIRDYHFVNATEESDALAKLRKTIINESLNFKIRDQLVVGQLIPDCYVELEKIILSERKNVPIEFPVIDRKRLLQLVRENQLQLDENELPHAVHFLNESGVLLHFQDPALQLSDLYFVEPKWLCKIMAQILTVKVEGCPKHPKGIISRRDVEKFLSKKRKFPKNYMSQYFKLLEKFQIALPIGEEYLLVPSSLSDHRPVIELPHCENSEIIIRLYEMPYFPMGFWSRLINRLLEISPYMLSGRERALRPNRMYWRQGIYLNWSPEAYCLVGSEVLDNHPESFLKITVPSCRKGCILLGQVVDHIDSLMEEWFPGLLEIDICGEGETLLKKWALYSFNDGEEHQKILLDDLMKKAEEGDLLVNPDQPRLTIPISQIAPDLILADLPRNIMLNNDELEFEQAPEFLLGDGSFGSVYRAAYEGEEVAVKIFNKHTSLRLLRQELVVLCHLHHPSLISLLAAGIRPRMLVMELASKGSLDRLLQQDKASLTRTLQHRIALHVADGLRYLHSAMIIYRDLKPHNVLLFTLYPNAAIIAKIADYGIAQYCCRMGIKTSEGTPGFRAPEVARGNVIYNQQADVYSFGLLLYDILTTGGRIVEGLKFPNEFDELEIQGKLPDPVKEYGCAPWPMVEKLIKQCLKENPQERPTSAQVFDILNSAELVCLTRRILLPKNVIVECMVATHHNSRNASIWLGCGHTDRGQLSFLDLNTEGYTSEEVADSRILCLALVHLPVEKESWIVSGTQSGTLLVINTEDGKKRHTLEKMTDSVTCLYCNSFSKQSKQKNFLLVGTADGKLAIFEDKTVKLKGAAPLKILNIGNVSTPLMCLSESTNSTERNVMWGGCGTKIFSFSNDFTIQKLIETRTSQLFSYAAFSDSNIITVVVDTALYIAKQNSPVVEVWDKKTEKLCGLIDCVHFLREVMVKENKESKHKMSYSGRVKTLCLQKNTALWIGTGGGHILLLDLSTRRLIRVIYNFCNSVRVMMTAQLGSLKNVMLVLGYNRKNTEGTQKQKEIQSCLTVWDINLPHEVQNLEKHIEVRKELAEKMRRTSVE
T3 sequence (Q5S007 970-2527 G2019S limits assumed): as the sequence (Q5S007 970-2527 limits assumed) above, with G1050S counted along it
T2 sequence (P23458 875-1153 limits assumed): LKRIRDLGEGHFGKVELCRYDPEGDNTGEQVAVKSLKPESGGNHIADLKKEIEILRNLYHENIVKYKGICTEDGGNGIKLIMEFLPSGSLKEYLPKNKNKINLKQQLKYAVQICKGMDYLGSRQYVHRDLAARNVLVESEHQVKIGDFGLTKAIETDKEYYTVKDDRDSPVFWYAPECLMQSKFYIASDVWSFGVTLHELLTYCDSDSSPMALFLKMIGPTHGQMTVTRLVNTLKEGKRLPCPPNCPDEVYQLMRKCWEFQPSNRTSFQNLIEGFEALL

SMILES	IC50 [1] [nM]	IC50 [2] [nM]	IC50 [3] [nM]	IC50 [4] [nM]	IC50 [5] [nM]
CCNC(=O)c1ccc(Nc2cn(-c3c(F)cccc3F)nc2C(N)=O)cc1 [compound 16, 1-(2,6-difluorophenyl)-4-((4-(ethylcarbamoyl)phenyl)amino)-1H-pyrazole-3-carboxamide]	10 to 100	100 to 1000	100 to 1000	100 to 1000	100 to 1000
NC(=O)c1nn(-c2c(F)cccc2Cl)cc1Nc1ccc(C(=O)N2CCOCC2)cn1 [compound 68, 1-(2-chloro-6-fluorophenyl)-4-((5-(morpholine-4-carbonyl)pyridin-2-yl)amino)-1H-pyrazole-3-carboxamide]	10 to 100	100 to 1000	100 to 1000	100 to 1000	100 to 1000
NC(=O)c1nn(-c2c(Cl)cccc2Cl)cc1Nc1ccc(-c2nccn2CC(F)F)cc1 [compound 230, 1-(2,6-dichlorophenyl)-4-((4-(1-(2,2-difluoroethyl)-1H-imidazol-2-yl)phenyl)amino)-1H-pyrazole-3-carboxamide]	< 10	10 to 100	100 to 1000	100 to 1000	100 to 1000
NC(=O)c1nn(-c2c(Cl)cccc2Cl)cc1Nc1ccc(C(=O)N2CCN(CC3CC3)CC2)cc1 [compound 86, 4-((4-(4-(cyclopropylmethyl)piperazine-1-carbonyl)phenyl)amino)-1-(2,6-dichlorophenyl)-1H-pyrazole-3-carboxamide]	< 10	10 to 100	100 to 1000	100 to 1000	100 to 1000
Cn1nncc1-c1ccc(Nc2cn(-c3c(Cl)cccc3Cl)nc2C(N)=O)cc1 [compound 48, 1-(2,6-dichlorophenyl)-4-((4-(1-methyl-1H-1,2,3-triazol-5-yl)phenyl)amino)-1H-pyrazole-3-carboxamide]	10 to 100	100 to 1000	100 to 1000	100 to 1000	100 to 1000
NC(=O)c1nn(-c2c(F)cccc2F)cc1Nc1ccc(C(=O)N2CCOCC2)nc1 [compound 30, 1-(2,6-difluorophenyl)-4-((6-(morpholine-4-carbonyl)pyridin-3-yl)amino)-1H-pyrazole-3-carboxamide]	10 to 100	100 to 1000	100 to 1000	100 to 1000	100 to 1000
NC(=O)c1nn(-c2c(F)cccc2Cl)cc1Nc1ccc(C(=O)NC2CCCNC2)cc1 (stereo not shown) [compound 38, 1-(2-chloro-6-fluorophenyl)-4-((4-(piperidin-3-ylcarbamoyl)phenyl)amino)-1H-pyrazole-3-carboxamide]	10 to 100	10 to 100	100 to 1000	100 to 1000	10 to 100
NC(=O)c1nn(-c2c(F)cccc2F)cc1Nc1ccc(C(=O)NCC(F)(F)F)cc1 [compound 14, 1-(2,6-difluorophenyl)-4-((4-((2,2,2-trifluoroethyl)carbamoyl)phenyl)amino)-1H-pyrazole-3-carboxamide]	10 to 100	100 to 1000	100 to 1000	100 to 1000	10 to 100
CN1CCC(NC(=O)c2ccc(Nc3cn(-c4c(F)cccc4Cl)nc3C(N)=O)cc2)CC1 [compound 35, 1-(2-chloro-6-fluorophenyl)-4-((4-((1-methylpiperidin-4-yl)carbamoyl)phenyl)amino)-1H-pyrazole-3-carboxamide]	10 to 100	10 to 100	10 to 100	10 to 100	100 to 1000

Other lines, results leading:

IC50 [1] [nM]	IC50 [2] [nM]	IC50 [3] [nM]	IC50 [4] [nM]	IC50 [5] [nM]	SMILES
< 10	100 to 1000	100 to 1000	100 to 1000	100 to 1000	NC(=O)c1nn(-c2c(Cl)cccc2Cl)cc1Nc1ccc(C(=O)N2CCC(N3CCCC3)C2)cc1 (stereo not shown) [compound 249, 4-((4-([1,3′-bipyrrolidine]-1′-carbonyl)phenyl)amino)-1-(2,6-dichlorophenyl)-1H-pyrazole-3-carboxamide]
10 to 100	10 to 100	100 to 1000	100 to 1000	10 to 100	CN1CCC(Oc2ccc(Nc3cn(-c4c(F)cccc4Cl)nc3C(N)=O)cc2)CC1 [compound 295, 1-(2-chloro-6-fluorophenyl)-4-((4-((1-methylpiperidin-4-yl)oxy)phenyl)amino)-1H-pyrazole-3-carboxamide]
100 to 1000	100 to 1000	100 to 1000	100 to 1000	10 to 100	CCc1ccnn1-c1ccc(Nc2cn(-c3c(F)cccc3F)nc2C(N)=O)cc1 [compound 287, 1-(2,6-difluorophenyl)-4-((4-(5-ethyl-1H-pyrazol-1-yl)phenyl)amino)-1H-pyrazole-3-carboxamide]
10 to 100	10 to 100	100 to 1000	100 to 1000	100 to 1000	CN1CCC(N(C)C(=O)c2ccc(Nc3cn(-c4c(Cl)ccc(F)c4Cl)nc3C(N)=O)cc2)CC1 [compound 417, 1-(2,6-dichloro-3-fluorophenyl)-4-((4-(methyl(1-methylpiperidin-4-yl)carbamoyl)phenyl)amino)-1H-pyrazole-3-carboxamide]
10 to 100	100 to 1000	100 to 1000	100 to 1000	100 to 1000	CCc1nc(C(F)(F)F)nn1-c1ccc(Nc2cn(-c3c(F)cccc3F)nc2C(N)=O)cc1 [compound 284]
10 to 100	10 to 100	100 to 1000	100 to 1000	100 to 1000	CN(C)[C@@H]1CCN(C(=O)c2ccc(Nc3cn(-c4c(Cl)cccc4Cl)nc3C(N)=O)cc2)C1 [compound 313, (R)-1-(2,6-dichlorophenyl)-4-((4-(3-(dimethylamino)pyrrolidine-1-carbonyl)phenyl)amino)-1H-pyrazole-3-carboxamide]
10 to 100	10 to 100	100 to 1000	100 to 1000	100 to 1000	Cn1cc(Nc2cn(-c3c(F)cccc3Cl)nc2C(N)=O)cn1 [compound 359, 1-(2-chloro-6-fluorophenyl)-4-((1-methyl-1H-pyrazol-4-yl)amino)-1H-pyrazole-3-carboxamide]
10 to 100	10 to 100	100 to 1000	100 to 1000	100 to 1000	CCN(CC)CCNC(=O)c1ccc(Nc2cn(-c3c(Cl)cccc3Cl)nc2C(N)=O)cc1 [compound 422, 1-(2,6-dichlorophenyl)-4-((4-((2-(diethylamino)ethyl)carbamoyl)phenyl)amino)-1H-pyrazole-3-carboxamide]
